Experimental data as given in PMC12087874, “Biaryl Phosphates and Phosphonates as Selective Inhibitors of the Transcription Factor STAT4” (Angewandte Chemie (International Ed. in English), 2025).

Biological target: T1, STAT4 Lys580Ala (Homo sapiens, UniProt Q14765, K580A)
T1 construct: 6xHis; made in house
T1 sequence (Q14765 1-748 K580A): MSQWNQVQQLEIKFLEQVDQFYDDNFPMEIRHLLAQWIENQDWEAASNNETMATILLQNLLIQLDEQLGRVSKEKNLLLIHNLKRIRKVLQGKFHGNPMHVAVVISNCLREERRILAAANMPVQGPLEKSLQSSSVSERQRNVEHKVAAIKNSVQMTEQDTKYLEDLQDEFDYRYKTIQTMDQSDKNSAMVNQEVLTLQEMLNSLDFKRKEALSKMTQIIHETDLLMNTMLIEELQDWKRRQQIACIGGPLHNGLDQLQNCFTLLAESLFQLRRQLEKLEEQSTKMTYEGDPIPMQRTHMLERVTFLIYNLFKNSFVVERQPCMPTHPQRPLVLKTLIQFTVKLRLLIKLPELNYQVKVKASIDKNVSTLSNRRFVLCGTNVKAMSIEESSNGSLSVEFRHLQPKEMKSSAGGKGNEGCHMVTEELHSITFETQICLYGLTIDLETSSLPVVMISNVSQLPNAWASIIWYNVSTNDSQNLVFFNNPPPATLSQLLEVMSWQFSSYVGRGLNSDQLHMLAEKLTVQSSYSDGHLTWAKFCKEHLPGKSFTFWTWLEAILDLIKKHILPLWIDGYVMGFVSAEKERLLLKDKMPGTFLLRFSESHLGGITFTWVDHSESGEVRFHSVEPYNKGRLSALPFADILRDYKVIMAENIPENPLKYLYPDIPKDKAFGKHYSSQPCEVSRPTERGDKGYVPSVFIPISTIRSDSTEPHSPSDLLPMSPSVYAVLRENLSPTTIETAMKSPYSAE
Experiment: Isothermal titration calorimetry (ITC), STAT4 Lys580Ala
Assay type: binding
Details: n = 4
Procedure: Isothermal Titration Calorimetry
Purification of 6xHis-tagged proteins for ITC experiments was carried out by affinity chromatography on His-Bind resin. The eluting fractions were analyzed by SDS -PAGE.
Proteins were dialyzed against ITC buffer (10 mM Tris pH 8.0, 50 mM NaCl) using dialysi s tubing with a 50 kDa cut-off. ITC experiments were performed using a VP-ITC Micro Calorimeter (MicroCal). 6m was dissolved as a 100 mM stock in DMSO and diluted 1/1000 in ITC buffer (Tris pH 8.0 and 50 mM NaCl), resulting in a final concentration of 100 µM. 8k was dissolved as a 5 mM stock in ITC buffer and diluted 1/25 in ITC buffer with DMSO, resulting in a final concentration of 200 µM 8k. DMSO was added to a final concentration of 2% (v/v). To avoid errors caused by the detection of dilution heat, 0.1 % (v/v) DMSO for 6m or 2% (v/v) DMSO for 8k experiments was added to the buffers containing the proteins and to the reference buffer. Proteins were degassed before the experiments using a ThermoVac sample degassing station. The following conditions were used for ITC experiments: 10 µM STAT4 protein for 6m or 20 µM STAT4 protein for 8k experiments, 100 µM 6m or 200 µM 8k, 28 injections with 10 µL single injection volume, 250 s initial delay, 500 s spacing between injections, 250 µcal/s reference power, 300 rpm stirring at 25 °C for 6m or 220 rpm stirring at 25 °C for 8k. […]

## O=P(O)(O)Oc1ccc(-c2ccc3ccccc3c2)cc1F [Compound 6m]
  binding to STAT4 point mutant Lys580Ala (ITC): too weak for reliable quantification
